Measured values reported in patent US20160368953A1, “BACTERIOCIN WITH NOVEL ACTIVITY” (The United States of America, as represented by the …, priority 2015, published 2016).

Legend:
Streptococcus mutans = assay: agar diffusion method, zones of inhibition; type: cell-based; design: key to Growth Inhibitory Activity: +++ represents very strong growth inhibition; ++ represents strong growth inhibition; + represents mild growth inhibition; − represents no growth inhibition
Protocol: (§1) Bacteriocin activity is measured using an agar diffusion method (see, Gilbreth & Somkuti (2005)). Cultures of S. thermophilus strain 110 (NRRL B59671) and S. thermophilus strain LMD-9 are grown at 37° C. to an OD660 between 0.8 and 1.0 in 10 ml tryptone-yeast extract medium (Somkuti & Steinberg 1986) formulated with lactose (TYL) or glucose (TYG), or M17 medium (Becton Dickinson Co., Sparks, Md.) formulated with glucose (M17G) or lactose (M17L). Cells are pelleted by high-speed centrifugation for collection of cell-free supernatants (CFS). CFS (˜50 μl) are loaded into precast wells in an agar medium seeded with the target bacteria (0.5% v/v). Bacterial targets included: S. thermophilus strain ST113 in TYL, P. acidilactici in MRS (Becton Dickinson Co., Sparks, Md.), and L. innocua in BHI (Beckton Dickinson Co., Sparks, Md.). Plates are allowed to equilibrate overnight at 4° C., and then are incubated at 37° C. for 8 hours and are examined for the appearance of zones of inhibition.
(§2) S. thermophilus strain 110 (NRRL B59671) are grown overnight in tryptone-yeast extract-lactose (TYL) medium. The overnight culture is diluted in fresh TYL medium and grown for 7 or 24 hours. At each time point, a 1 ml sample is collected. Bacterial cells are removed from the 1 ml samples by centrifugation; and the cell free supernatants (CFS) are tested for antimicrobial activity using an agar diffusion method (see Gilbreth and Somkuti (2005) and Example 2 supra). Target agar plates are prepared by inoculating molten microbiological medium with the overnight growth of susceptible bacteria (0.5% v/v; 250 μl of culture into 50 ml of medium). The inoculated molten agar is poured into square dishes and left to harden at room temperature (approximately 10 minutes). Wells are made in the solidified agar plates using a sterile glass Pasteur pipette, and each well is filled with 50 μl of CFS samples. The agar plates are stored overnight at 4° C. to allow for diffusion of the CFS into the agar medium. The agar plates with loaded wells are then incubated at 37° C. to allow for growth of the target bacterium. The agar plates are monitored for growth of the target bacterium (agar medium becomes turbid), and the presence of clear zones around wells. […] Furthermore, antimicrobial activity is shown to be associated with a low-molecular weight peptide based on gel electrophoretic analysis (Gilbreth & Somkuti 2005). Agar diffusion assays are repeated a minimum of three times.

Streptococcus pyogenes = assay: agar diffusion method, zones of inhibition; type: cell-based; design: key to Growth Inhibitory Activity: +++ represents very strong growth inhibition; ++ represents strong growth inhibition; + represents mild growth inhibition; − represents no growth inhibition
Protocol: as §1, §2

Propionibacterium acnes = assay: agar diffusion method, zones of inhibition; type: cell-based; design: key to Growth Inhibitory Activity: +++ represents very strong growth inhibition; ++ represents strong growth inhibition; + represents mild growth inhibition; − represents no growth inhibition
Protocol: S. thermophilus strain 110 (NRRL B59671) are grown overnight in tryptone-yeast extract-lactose (TYL) medium. The overnight culture is diluted in fresh TYL medium and grown for 7 or 24 hours. At each time point, a 1 ml sample is collected. Bacterial cells are removed from the 1 ml samples by centrifugation; and the cell free supernatants (CFS) are tested for antimicrobial activity using an agar diffusion method (see Gilbreth and Somkuti (2005) and Example 2 supra). Target agar plates are prepared by inoculating molten microbiological medium with the overnight growth of susceptible bacteria (0.5% v/v; 250 μl of culture into 50 ml of medium). The inoculated molten agar is poured into square dishes and left to harden at room temperature (approximately 10 minutes). Wells are made in the solidified agar plates using a sterile glass Pasteur pipette, and each well is filled with 50 μl of CFS samples. The agar plates are stored overnight at 4° C. to allow for diffusion of the CFS into the agar medium. The agar plates with loaded wells are then incubated at 37° C. to allow for growth of the target bacterium. The agar plates are monitored for growth of the target bacterium (agar medium becomes turbid), and the presence of clear zones around wells. […]

[1] = tested on: Lactobacillus acidophilus; assay: agar diffusion method, zones of inhibition; type: cell-based; design: key: +++ represents very strong growth inhibition; ++ represents strong growth inhibition; + represents mild growth inhibition; − represents no growth inhibition; settings: 50 μl CFS of S. thermophilus strain 110 grown in TYL, 7 h and 24 h samples identical; target in MRS
Protocol: as §2

Streptococcus agalactiae = assay: agar diffusion method, zones of inhibition; type: cell-based; design: key: +++ represents very strong growth inhibition; ++ represents strong growth inhibition; + represents mild growth inhibition; − represents no growth inhibition; settings: 50 μl CFS of S. thermophilus strain 110 grown in TYL, 7 h and 24 h samples identical; target in TYL
Protocol: as §2

[2] = tested on: Streptococcus dysgalactiae; assay: agar diffusion method, zones of inhibition; type: cell-based; design: key: +++ represents very strong growth inhibition; ++ represents strong growth inhibition; + represents mild growth inhibition; − represents no growth inhibition; settings: 50 μl CFS of S. thermophilus strain 110 grown in TYL, 7 h and 24 h samples identical; target in TYL
Protocol: as §2

Streptococcus uberus = assay: agar diffusion method, zones of inhibition; type: cell-based; design: key: +++ represents very strong growth inhibition; ++ represents strong growth inhibition; + represents mild growth inhibition; − represents no growth inhibition; settings: 50 μl CFS of S. thermophilus strain 110 grown in TYL, 7 h and 24 h samples identical; target in TYL
Protocol: as §2

Listeria innocua = assay: agar diffusion method, zones of inhibition; type: cell-based; design: key: +++ represents very strong growth inhibition; ++ represents strong growth inhibition; + represents mild growth inhibition; − represents no growth inhibition; settings: 50 μl CFS of S. thermophilus strain 110 grown in TYL, 7 h and 24 h samples identical; target in BHI
Protocol: as §1
(§3) S. thermophilus strain 110 (NRRL B59671) are grown overnight in tryptone-yeast extract-lactose (TYL) medium. The overnight culture is diluted in fresh TYL medium and grown for 7 or 24 hours. At each time point, a 1 ml sample is collected. […] The agar plates are monitored for growth of the target bacterium (agar medium becomes turbid), and the presence of clear zones around wells. […]

Pediococcus acidilactici [3] = assay: agar diffusion method, zones of inhibition; type: cell-based; design: key: +++ represents very strong growth inhibition; ++ represents strong growth inhibition; + represents mild growth inhibition; − represents no growth inhibition; settings: 50 μl CFS of S. thermophilus strain 110 grown in TYL, 7 h and 24 h samples identical; target in MRS
Protocol: as §1, §3

Pediococcus acidilactici [4] = assay: antimicrobial activity of recombinant BlpU, SDS-PAGE gel overlay method; type: cell-based; settings: expressed in E. coli BL21 pGEX-6P-1/blpU; before or after Factor Xa cleavage of the GST tag; FIG. 6
From the text: The nucleic acid sequence (162 base pairs; SEQ ID NO: 37) corresponding to the mature BlpU peptide (not including the 23 amino acid leader peptide) is amplified from the S. thermophilus strain 110 (NRRL-B59671) chromosome by PCR with the primers: forward: […] (BamHI—recognition site underlined; nucleotides encoding the Factor Xa recognition sequence (isoleucine-glutamic acid-glycine-arginine) are italicized) (SEQ ID NO: 34) and reverse: […] (XhoI—recognition site underlined) (SEQ ID NO: 35). […] The DNA fragment is subsequently cloned into the pGEX 6P-1 plasmid (GE Healthcare Life Sciences, Piscataway, N.J.) at the BamHI and XhoI sites. The resulting plasmid (pGEX 6P-1/blpU) encodes for a fusion protein with the glutathione S transferase (GST) tag on the N-terminus of BlpU, and expression is under control of an isopropyl β-D-1-thiogalactopyranoside (IPTG) inducible promoter. The plasmid is transformed into E. coli strain BL21 for recombinant expression of the fusion protein. […] The eluent from the dialysis bag is recovered and analyzed by SDS-PAGE for the presence of a ˜31 kDa fusion protein. […] The cleaved product is analyzed by SDS-PAGE for the presence of BlpU (silver nitrate staining) and antimicrobial activity against Pediococcus acidilactici (gel overlay method; Gilbreth and Somkuti, 2005).

Pediococcus acidilactici [5] = settings: Gilbreth and Somkuti (2005); positive control; cited from earlier work
[6] = 50 μl CFS of S. thermophilus strain 110 grown in TYL, 7 h and 24 h samples identical, target in BHI

thermophilin 110: mature bacteriocin produced by S. thermophilus strain 110, amino acids 24-76 of SEQ ID NO: 1 (SEQ ID NO: 36), about 5 kDa (GCSWGGFAKQGVATGVGNGLRLGIKTRTWQGAVAGAAGGAIVGGVGYGATCWW; listed as Streptococcus thermophilus)
Growth Inhibitory Activity (Streptococcus mutans; 50 μl CFS of S. thermophilus strain 110 grown in TYL, 7 h and 24 h samples identical, target in Todd Hewitt): ++
growth inhibitory activity against S. mutans (in words) (Streptococcus mutans; text summary of Table 4): strong growth inhibitory activity
Growth Inhibitory Activity (Streptococcus pyogenes; [6]): +++
growth inhibitory activity against S. pyogenes (in words) (Streptococcus pyogenes; text summary of Table 4): very strong growth inhibitory activity
Growth Inhibitory Activity (Propionibacterium acnes; [6]): ++
growth inhibitory activity against P. acnes (in words) (Propionibacterium acnes; text summary of Table 4): strong growth inhibitory activity
Growth Inhibitory Activity [1]: +++
Growth Inhibitory Activity (Streptococcus agalactiae): −
Growth Inhibitory Activity [2]: −
Growth Inhibitory Activity (Streptococcus uberus): +
Growth Inhibitory Activity (Listeria innocua): +
Growth Inhibitory Activity (Pediococcus acidilactici [3]): +++
antimicrobial activity against P. acidilactici (Pediococcus acidilactici [4]): inhibition zone
zones of inhibition against P. acidilactici in prior studies (Pediococcus acidilactici [5]): very strong zones of inhibition
